# Structures can show the parent of a compound that is named as a salt.
# Key:
# acne vulgaris = experiment: Case with treatment of acne vulgaris; type: in vivo, human; conditions: person; for Reddened inflamed area surrounding the lesion: topical treatment of acne vulgaris
# Source text: A person was suffering from acne vulgaris characterised by comedones and some inflammatory lesions. They had previously regularly used a 5% benzoyl peroxide cream to treat the condition. During a flare up of the condition they applied a 5.0% aqueous solution of Pemirolast (potassium salt) once daily for four weeks to the areas affected. […] The treatment was followed and assessed by a physician.
# IL-1α = experiment: Cytokine production, LPS induced human PBMC; type: cell-based; conditions: stated in words only, no value
# Experimental: The inhibition of Pemirolast on cytokine production was determined using the assay “LPS induced human PBMC”.
# [1] = test system: arachidonic acid-induced ear inflammation; experiment: Arachidonic acid-induced ear-inflammation test in mice; type: in vivo, female BALB/cA mice; conditions: intraperitoneal, 30 minutes before arachidonic acid; ear oedema one hour after
# Experimental: The anti-inflammatory potential of Pemirolast can be tested in “arachidonic acid-induced ear-inflammation test in mice”, a commonly employed method for screening and evaluation of antiinflammatory drugs. Dexamethasone was employed as reference compound.
# The study can be performed in female BALB/cA mice from M & B A/S, DK-8680 Ry. The test substances (various concentration of Pemirolast dissolved in aqueous solutions) and the reference compound are administered intraperitoneally in volumes of 20 ml per kg body weight 30 minutes before application of arachidonic acid to the ear. All groups are then treated with 20 μl arachidonic acid, 100 mg/ml in acetone, on the right ear.
# One hour after the application of arachidonic acid the mice are sacrificed, the ears cut from the tip with a punch biopsy knife (8 mm diameter) and weighed. Mean weights and standard deviations are calculated. Relative ear oedema is assessed as the weight difference between right and left ear of each mouse expressed as percent of the left ear. Percent inhibition of the relative ear oedema compared with the vehicle treated groups is calculated for the test substance and reference compound treated groups. […]
# PPAR-γ = molecular target: T1, PPAR-γ (Homo sapiens, UniProt P37231); experiment: Gal-4-PPAR luciferase reporter assay in HEK 293-T (Indigo Biosciences); type: cell-based; conditions: % inhibition 50, 14 hours treatment, read-out: Concentration of Pemirolast giving 50 % inhibition of PPAR-γ
# T1 sequence (P37231 238-505 limits assumed): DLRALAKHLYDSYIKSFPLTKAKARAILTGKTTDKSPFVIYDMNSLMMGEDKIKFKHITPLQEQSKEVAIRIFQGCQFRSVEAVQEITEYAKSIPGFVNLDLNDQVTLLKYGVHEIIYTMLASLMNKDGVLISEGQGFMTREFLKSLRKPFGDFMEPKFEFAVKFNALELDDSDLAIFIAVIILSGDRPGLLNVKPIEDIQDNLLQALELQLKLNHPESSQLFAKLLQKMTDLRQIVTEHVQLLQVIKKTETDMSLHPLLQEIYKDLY
# Experimental: (§1) The inhibitory effect of Pemirolast on PPAR was determined by Indigo Biosciences. The following assay procedure was used: Compounds were diluted in DMSO to a final concentration of […] and serial dilutions prepared. The cell line HEK 293-T was transiently transfected with Gal-4-human PPARα, γ, Gal-4-luciferase and pRL (renilla, to correct for efficiency). The cells were treated with Pemirolast or with positive controls (ciprofibrate, or rosiglitazone) for 14 hours. The cells were lysed and luciferase and renilla activity were determined.
# PPAR-α = molecular target: T2, PPAR-α (Homo sapiens, UniProt Q07869); experiment: as above; type: cell-based; conditions: % inhibition 50, 14 hours treatment, read-out: Concentration of Pemirolast giving 50 % inhibition of PPAR-α
# T2 sequence (Q07869 200-468 limits assumed): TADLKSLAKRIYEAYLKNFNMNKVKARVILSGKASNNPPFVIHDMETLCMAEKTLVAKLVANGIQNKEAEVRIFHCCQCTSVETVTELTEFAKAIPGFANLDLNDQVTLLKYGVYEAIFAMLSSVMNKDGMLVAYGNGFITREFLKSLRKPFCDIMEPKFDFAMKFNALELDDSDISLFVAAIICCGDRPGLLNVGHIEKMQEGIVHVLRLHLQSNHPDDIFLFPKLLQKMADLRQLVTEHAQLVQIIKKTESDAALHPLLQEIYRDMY
# Experimental: as §1
# [2] = 5.0% aqueous solution once daily for four weeks, topical
SMILES,Inflammatory acne lesions after treatment (acne vulgaris; [2]),Scarring after treatment (acne vulgaris; [2]),Reddened inflamed area surrounding the lesion (acne vulgaris),Inhibition of IL-1α (IL-1α),Effect on inflammatory reaction in the arachidonic acid treated ear [1],IC50 (PPAR-γ),IC50 (PPAR-α)
Cc1cccn2c(=O)c(-c3nnn[nH]3)cnc12 [Pemirolast (potassium salt)],completely recessed,without any noticeable scarring,also recessed,,,,
"Cc1cccn2c(=O)c(-c3nnn[nH]3)cnc12 [Pemirolast, 9-methyl-3-(1H-tetrazol-5-yl)-4H-pyrido[1,2-a]pyrimidin-4-one]",,,,inhibits,significantly prevented the inflammatory reaction,20 µM,17 µM
O=C(OOC(=O)c1ccccc1)c1ccccc1 [benzoyl peroxide],,,did not remove the reddened inflamed area,,,,

# From patent US20070225301A1, “TREATMENT OF ACNE AND OTHER DISEASES” (Astion Inflammation ApS, priority 2006, published 2007)
